# Data reported in patent US5206415A, “Tricyclic steroid analogs” (priority 1991, dated 1993).
# Structures can show the parent of a compound that is named as a salt. Where two headings read alike, the source gives them in different places.
# How the values were obtained:
# [1] = cited from earlier work
# rat synaptoneurosomes = conditions: cited from earlier work
# [2] = system: GABA-induced chloride currents; conditions: electrophysiological experiments; cited from earlier work
# [3] = system: GABA receptor/chloride ionophore complex; assay: Potentiation of GABA currents by tricyclic analogs (patch clamp, cultured hippocampal neurons); type: cell-based, albino rat; conditions: 1 μM GABA, mean ± SEM (N)
# Experimental: (§1) Under halothane anesthesia, 1 day old albino rat pups are sacrificed by rapid decapitation and the hippocampi are dissected and dissociated with papain (1 mg/ml in oxygenated L-15 media for 30 min at 35° C.) and mechanical trituration (18). Cells are plated on collagen coated-culture dishes at a density of 300,000 cells/ml. The growth media consists of Eagles Minimal Essential Media (MEM) supplemented with 5% fetal calf serum, 5% horse serum, 17 mM glucose, 0.4 mM glutamine, 50 U/ml penicillin and 50 μg/ml streptomycin. After three days in culture cells are treated with 10 μM cytosine arabinoside (ARA-C) to suppress glial growth. Cells are subsequently fed with fresh media once per week.
# (§2) For recording purposes the growth media is replaced with a solution containing (in mM): 140 NaCl, 5 KCl, 2 CaCl2, 1 MgCl2, 10 glucose, 10 HEPES, 0.001 tetrodotoxin, pH=7.3. Neurons are studied using patch clamp recording techniques (12) with pipettes containing (in mM): 145 CsCl, 5 BAPTA, 5 NaCl, 0.5 CaCl2, 2 MgATP, 10 HEPES, pH=7.3. This CsCl intracellular solution sets the Cl^-1 equilibrium potential (Ecl) at 0 mV (i.e. symmetric transmembrane concentrations of Cl^-). This allows reliable recording of Cl^-1 currents without concern for shifts in transmembrane Cl^-1 concentration which can alter GABA responses during longer agonist exposures (1). […]
# [4] = system: GABA receptor/chloride ionophore complex; assay: Direct Cl^- current activation (patch clamp, cultured hippocampal neurons); type: cell-based, albino rat; conditions: numeric bound
# Experimental: as §1, §2
# [5] = system: recombinant human GABAA receptors; conditions: single channel recordings; cited from earlier work
# GABA currents = conditions: various CNS neurons, cited from earlier work
# picrotoxin site = conditions: cited from earlier work
# GABAA channels = conditions: single channel; cited from earlier work
# benzodiazepine receptors = conditions: several studies; cited from earlier work
# GABAA receptors [6] = conditions: cultured hippocampal neurons; cited from earlier work
# [7] = system: GABA-mediated inhibitory synaptic responses; conditions: olfactory cortical slices; cited from earlier work
# GABA-gated channels = conditions: fluctuation analysis; cited from earlier work
# [8] = system: GABA receptor channel complex; conditions: cited from earlier work
# [9] = two different animal models of anxiety; cited from earlier work
# [10] = rats; cited from earlier work
# [11] = system: GABA-mediated neuronal inhibition; conditions: cited from earlier work
# [12] = in vivo; cited from earlier work
# GABAA receptors [13] = conditions: cited from earlier work
compound,measurement,setting,value
CC(=O)[C@H]1CC[C@H]2[C@@H]3CC[C@@H]4C[C@H](O)CC[C@]4(C)[C@H]3CC[C@]12C [3α-hydroxy-5β-pregnan-20-one],activity in vivo as steroid anesthetics,[1],active in vivo as steroid anesthetics
same,potentiation of muscimol-stimulated chloride uptake,rat synaptoneurosomes,potentiators of muscimol-stimulated chloride uptake
same,potentiation of GABA-induced chloride currents,[2],potentiators of GABA-induced chloride currents
"CC(=O)[C@H]1CC[C@H]2[C@@H]3CC[C@H]4C[C@H](O)CC[C@]4(C)[C@H]3CC[C@]12C [Example 3α-OH-DHP, 3α-hydroxy-5α-pregnan-20-one]","Potentiation of GABA currents, 0.1 μM",[3]; 0.1 μM compound,110 ± 5% of control response to
same,"Potentiation of GABA currents, 1.0 μM",[3]; 1.0 μM compound,195 ±16% of control response to
same,Concentration for Direct Cl^- Current Activation,[4],> 1 µM
same,channel open times and burst lengths / opening frequency,[5],increases the frequency of channel opening without altering the open times
same,activity in vivo as steroid anesthetics,[1],active in vivo as steroid anesthetics
same,potentiation of muscimol-stimulated chloride uptake,rat synaptoneurosomes,potentiators of muscimol-stimulated chloride uptake
same,potentiation of GABA-induced chloride currents,[2],potentiators of GABA-induced chloride currents
CC(=O)C1CCC2C3CC=C4CC(OS(=O)(=O)O)CCC4(C)C3CCC12C (stereo not shown) [pregnenolone sulfate],GABA currents,GABA currents,inhibit GABA-induced chloride currents
same,GABA currents,GABA currents; listed as pregnenolone sulfate (PS),inhibit GABA currents
same,TBPS binding,picrotoxin site,inhibits TBPS binding at the picrotoxin site
same,opening frequency of the channels,GABAA channels,decreasing the opening frequency of the channels
picrotoxin,opening frequency of the channels,GABAA channels,decreasing the opening frequency of the channels
CCOC(=O)c1ncn2c1CN(C)C(=O)c1cc(F)ccc1-2 [R015-1788 (flumazenil)],effect on steroid responses,benzodiazepine receptors,failed to find an effect
CCCC(C)C1(CC)C(=O)NC(=O)NC1=O (stereo not shown) [pentobarbital],channel open times and burst lengths / opening frequency,[5],prolongs channel open times and burst lengths
CC(=O)[C@H]1CC[C@H]2[C@@H]3CC[C@H]4C[C@H](O)CC[C@]4(C)[C@H]3C(=O)C[C@]12C [alphaxalone],peak IPSC amplitude or rise time,GABAA receptors [6],without change in peak IPSC amplitude or rise time
same,prolongation of IPSC decay,GABAA receptors [6],5-8 fold
same,time course of GABA-mediated inhibitory synaptic responses,[7],prolongs the time course of GABA-mediated inhibitory synaptic responses
same,burst length of GABA-gated channels,GABA-gated channels,significantly prolongs the burst length of GABA-gated channels
same,single channel conductance,GABA-gated channels,without changing the single channel conductance
C[C@]12CCC(=O)C=C1CC[C@@H]1[C@@H]2[C@@H](O)C[C@@]2(C)[C@H]1CC[C@]2(O)C(=O)CO [Cortisol],GABA-induced chloride currents,[8]; nanomolar concentrations,inhibits these same currents
same,GABA-induced chloride currents,[8]; picomolar concentrations,augments GABA-induced chloride currents
"C[C@]12CC[C@@H](O)C[C@@H]1CC[C@@H]1[C@@H]2CC[C@]2(C)[C@@H](C(=O)CO)CC[C@@H]12 [THDOC, 5α-pregnane-3α, 21-diol-20-one]",anxiolytic and sedative activity,[9],both anxiolytic and sedative activity
same,sleep induction and nonREM sleep,[10],induce sleep and increase nonREM sleep
same,GABA-mediated neuronal inhibition,[11],augment GABA-mediated neuronal inhibition
CC(=O)[C@H]1CC[C@H]2[C@@H]3CCC4=CC(=O)CC[C@]4(C)[C@H]3CC[C@]12C [progesterone],usefulness for treating premenstrual syndrome,[12],often useful
"C[C@]12CC[C@H](OS(=O)(=O)O)CC1=CC[C@@H]1[C@@H]2CC[C@]2(C)C(=O)CC[C@@H]12 [dehydroepiandrosterone sulfate (DHEAS), dehydroepiandrosterone sulfate]",GABA currents,GABA currents,inhibit GABA currents
same,TBPS binding,picrotoxin site,not DHEAS
CN1CCc2cc3c(cc2[C@H]1[C@@H]1OC(=O)c2c1ccc1c2OCO1)OCO3 [bicuculline],block of steroid gated currents,GABAA receptors [13],blocked
